Columns and labels:
[1] = test system: MCF7 human breast adenocarcinoma cell line; experiment: Cell viability (CellTiter-Glo) after mRNA transfection, MCF7; assay type: cell-based
Experimental: (§1) The goal of these experiments is to evaluate the transfectability of various cell lines, as well as evaluate the role of KEAP1 as a tumor cells sensitizer, evaluate its role in decreasing the viability of tumor cells. The synthetic mRNA produced in Example 1, or the cLUC mRNA are transfected in cancer cells using the Lipofectamine MessengerMAX™ Transfection Reagent, ThermoFisher™, Cat No: LMRNA001. 0, 0.3, 1, 3 or 9 ng of either mRNA is used per 1000 cells.
(§2) MCF7 and MCF7/MDR human breast adenocarcinoma cell lines are transfected for 48 hours with 0, 0.3, 1, 3 and 9 ng of KEAP1 mRNA, or with 0, 0.3, 1, 3 and 9 ng of a control Cypridina luciferase (cLUC) (SEQ ID NO: 10) mRNA. The cells viability was measured using the CellTiter-Glo® assay from Promega®. KEAP1 mRNA specific effects on MCF7 and MCF7/MDR cells survival were observed when cells were transfected with 0, 0.3, 1, 3 and 9 ng of KEAP1 mRNA.
(§3) MCF7 and MCF7/MDR human breast adenocarcinoma cell lines are transfected for 48 hours with 0, 1 and 3 ng of KEAP1 mRNA, or with 0, 1 and 3 ng of a control Cypridina luciferase (cLUC) mRNA, per 1000 cells. The cells viability was measured using the CellTiter-Glo® assay from Promega®. In-cell Western analysis is used to detect the presence of KEAP1.
(§4) Human Mammary Epithelial Cells (HMEC), which are non-cancer cells were compared to MCF7 cancer cells. The HMEC cells and MCF7 cancer cells were transfected for 48 hours with 0, 0.3, 1, 3 and 9 ng of KEAP1 mRNA, or a control cLUC mRNA, per 1000 cells and their respective survival were compared. The cells viability was measured using the CellTiter-Glo® assay from Promega®. […] Now referring to FIG. 4, cell viability of MCF7 cells was affected by KEAP1 mRNA, but the viability of the HMEC cells was unaffected by KEAP1 mRNA.

[2] = test system: MCF7/MDR human breast adenocarcinoma cell line; experiment: Cell viability (CellTiter-Glo) after mRNA transfection, MCF7/MDR; assay type: cell-based; settings: for % Cell survival: MCF7/MDR, 48 hours transfection (Example 3)
Experimental: as §1, §2, §3

[3] = test system: OVCAR3 epithelial cells; experiment: Cell viability (CellTiter-Glo) after mRNA transfection, OVCAR3; assay type: cell-based, human
Experimental: (§5) The synthetic mRNA produced in Example 1 is transfected in cancer cells using the Lipofectamine MessengerMAX™ Transfection Reagent.
(§6) OVCAR3 epithelial cells isolated from malignant ascites of a patient with progressive adenocarcinoma of the ovary, and SUIT2 human pancreatic cancer cell lines are transfected for […] with 0, 0.3, 1, 3 and 9 ng of KEAP1 mRNA, or with 0, 0.3, 1, 3 and 9 ng of a control Cypridina luciferase (cLUC)(SEQ ID NO: 10) mRNA, per 1000 cells. The cells viability was measured using the CellTiter-Glo® assay from Promega®. In-cell Western analysis is used to detect the presence of KEAP1.

[4] = test system: SUIT2 human pancreatic cancer cell line; experiment: Cell viability (CellTiter-Glo) after mRNA transfection, SUIT2; assay type: cell-based; settings: SUIT2, 0, 3 and 9 ng mRNA per 1000 cells
Experimental: as §5, §6

[5] = test system: Human Mammary Epithelial Cells (HMEC); experiment: Cell viability (CellTiter-Glo) after mRNA transfection, HMEC; assay type: cell-based; settings: HMEC, 0, 3 and 9 ng mRNA per 1000 cells, 48 hours transfection
Experimental: as §5, §4

“cLUC mRNA: control Cypridina luciferase (cLUC) (SEQ ID NO: 10) mRNA” was tested, and the “effect on cell survival / viability” value ([1]; MCF7, 0, 0.3, 1, 3 and 9 ng mRNA per 1000 cells, 48 hours (FIG. 2)) was “little effect on cell survival unless a large amount of 9 ng was transfected”, the “% Cell survival” value ([1]; MCF7, 1 ng mRNA per 1000 cells, 48 hours transfection (Example 3)) was 100% and the “% Cell survival” value ([1]; MCF7, 3 ng mRNA per 1000 cells, 48 hours transfection (Example 3)) was 55%. For the same substance, the “% Cell survival” value ([1]; MCF7, 3 ng mRNA per 1000 cells, 48 hours transfection (Example 4, Table 2)) was 100%, the “% Cell survival” value ([1]; MCF7, 9 ng mRNA per 1000 cells, 48 hours transfection (Example 4, Table 2)) was 55% and the “effect on cell survival / viability” value ([2]; MCF7/MDR, 0, 0.3, 1, 3 and 9 ng mRNA per 1000 cells, 48 hours (FIG. 2)) was “little effect on cell survival unless a large amount of 9 ng was transfected”. The “% Cell survival” value ([2]; 1 ng mRNA per 1000 cells) was 100%, the “% Cell survival” value ([2]; 3 ng mRNA per 1000 cells) was 55% and the “% Cell survival” value ([3]; OVCAR3, 3 ng mRNA per 1000 cells) was 90%. The “% Cell survival” value ([3]; OVCAR3, 9 ng mRNA per 1000 cells) was 80%, the “% Cell survival” value [4] was “Resistant” and the “% Cell survival” value [5] was “Resistant”.
